Numbered stars: 1 amine (or outer) side, 2 acyl side, 3 side chain; on linkers, the order of the positions; unused ones are H or OH. Ends that are not written are not given here. Suc = O=C(CCC(=O)[*:2])[*:1]
What was measured:
[1] = tested on: progressive or recurrent carcinoma; test: Open label, single arm, dose escalation study of IRL-1620 in combination with docetaxel: anti-tumor activity; assay type: in vivo, human
Source text: Patient characteristics were as follows.
CT or MRI scans are used to assess the patient's tumor size. A series of dynamic contrast enhancer pattern MRI scans are used to measure any increases in blood flow induced by IRL 1620.

[2] = tested on: blood flow in tumor and non-tumor regions; test: H2^15O PET Blood Flow scans after IRL-1620; assay type: in vivo, human; conditions: patients, PET blood flow scans on Day 8
[3] = 30 patients, IRL-1620 with docetaxel
[4] = previously docetaxel treated prostate cancer patient

In the case of “N-Succunyl-[Glu^9, Ala^11,15] Endothelin-1 (8-21) (Suc-DEEAVYFAHLDIIW) [IRL-1620, ETB receptor agonist]”, the “time on study of patients with prolonged clinical benefit” value ([1]; 4 cases, IRL-1620 with docetaxel) is reported as 20-74 weeks, the “cases of prolonged clinical benefit” value [1, 3] is reported as 4 cases and the “cases of stable disease” value [1, 3] is reported as 5 cases. The “prolonged clinical benefit rate” value [1, 3] was 13%, the “stable disease (SD) rate” value [1, 3] was 16% and the anti-tumor activity ([1]; docetaxel-pretreated patients) was “Anti-tumor activity was seen”. For the same substance, the “time to complete regression of lung metastasis” value ([1]; one patient with cholangiocarcinoma) was no more than 3 months, the “time on study before progressing” value ([1]; one patient with cholangiocarcinoma, complete regression of lung metastasis) was 41 weeks and the “discontinuation of the study due to disease progression” value ([1]; patients, IRL-1620 with docetaxel) was 84%. For the same substance, the PSA response [1, 4] was “PSA response”, the “change in metastatic prostate cancer” value [1, 4] was “measurable decrease” and the “changes in blood flow” value [2] was “did not result in any measurable changes”.

Source: patent US10022421B2, “Treatment of primary and metastatic carcinoma” (Spectrum Pharmaceuticals Inc., priority 2012, dated 2018)
